Series [1] relates to Plasmodium falciparum. Kind of series: Antimalarial activity against Plasmodium falciparum D6. The series is classed as functional, organism-based.
Series [2] relates to Mycobacterium intracellulare. The series can be described thus: Antibacterial activity against Mycobacterium intracellular. The format is functional.
In a further series the test system is Vero. Kind of series: Cytotoxicity against african green monkey Vero cells. The following applies: chlorocebus sabaeus. The series is classed as cell-based.
Another series has as its system Candida albicans. The series can be described thus: Antifungal activity against Candida albicans. The format is functional, organism-based.
Another series deals with Cryptococcus neoformans. The series can be described thus: Antifungal activity against Cryptococcus neoformans. The format is functional, organism-based.
In series [3] the test system is Plasmodium falciparum. Kind of series: Antimalarial activity against Plasmodium falciparum W2. The series is classed as functional, organism-based.

Usually MIC stands for the lowest concentration found to suppress growth.

In brackets after ≈: the same amount, converted by molar mass. Activity calls are given as the source filed them. The calls are words filed in the database; no cut-off is given here.

Consider `O=CN(CCc1cnc[nH]1)c1cc[nH]c1` [SOLSODOMINE A], for which the outcome in the series with Plasmodium falciparum [1], in the series on Candida albicans, in the series on Cryptococcus neoformans and with Plasmodium falciparum [3] was inactive. In series [2], this molecule came in with an MIC of 10 µg/mL (≈ 49 µM). Also, in the series on Vero, the Activity result is listed as “Not Active”.

With `CNCCCN(C=O)c1cc[nH]c1` [SOLSODOMINE B], the result in the series with Plasmodium falciparum [1], with Candida albicans, in the series with Cryptococcus neoformans and in the series with Plasmodium falciparum [3] was inactive. Besides, the Activity result in the series on Vero was “Not Active”.

The record behind these values is ChEMBL document CHEMBL1150914, “New pyrrole alkaloids from Solanum sodomaeum” (J Nat Prod, 1998).
